According to patent publication US4128639A, “Nitrosourea analogs of thymidine” (Research Corporation, priority 1977, dated 1978):
Where two headings read alike, the source gives them in different places.

Experiments:
L1210 cells [1] = experiment: Reversal of cytotoxicity of nitrosourea analogs of thymidine by pyrimidine deoxyribonucleosides (inhibition study in L1210 cultures); type: cell-based; conditions: for Percent Reversal: nitrosourea analog 5 μM
L1210 leukemia cells = experiment: Culture study with L1210: inhibition of replication/growth of L1210 cells in vitro; type: cell-based; conditions: Mus musculus, read-out: ED50 (drug concentration needed to inhibit cell growth by 50%)
Experimental: The effect of the compounds on the growth of L1210 cells in vitro was used as a measure of cytotoxicity. Suspension cultures were grown in Fischer's media supplemented with 10% horse serum at 37°. 72 Hours after addition of the nitrosoureas, cell numbers were determined in two independent samples, in duplicate, using a Coulter counter, for each concentration tested. ED50 values were estimated from dose-response curves compiled from at least three separate experiments and represent the drug concentration needed to inhibit cell growth by 50%.

L1210 cells [2] = experiment: In vivo study with CDF1 mice inoculated with L1210 cells
Experimental: Two groups of CDF1 mice were inoculated with 1 × 10^5 L1210 cells/animal intraperitoneally. Two days later, one group of six mice received a single intraperitoneal injection (150 mg/Kg) of compound 5 (5'-[3-(2-chloroethyl)-3-nitrosoureido]-5'-deoxythymidine) and the control group was administered an equal volume of vehicle.

[3] = reversing agent deoxycytidine 0 μM
[4] = reversing agent deoxycytidine 5 μM
[5] = reversing agent deoxycytidine 25 μM
[6] = reversing agent deoxyuridine 0 μM
[7] = reversing agent deoxyuridine 5 μM
[8] = reversing agent deoxyuridine 25 μM
[9] = reversing agent thymidine 25 μM
[10] = single intraperitoneal injection 150 mg/kg, 2 days after 1 × 10^5 L1210 cells, CDF1 mice

Structure (SMILES) | Percent Reversal (L1210 cells [1]; [3]) [%] | Percent Reversal (L1210 cells [1]; [4]) [%] | Percent Reversal (L1210 cells [1]; [5]) [%] | Percent Reversal (L1210 cells [1]; [6]) [%] | Percent Reversal (L1210 cells [1]; [7]) [%] | Percent Reversal (L1210 cells [1]; [8]) [%] | Percent Reversal (L1210 cells [1]; reversing agent thymidine 0 μM) [%] | Percent Reversal (L1210 cells [1]; reversing agent thymidine 1 μM) [%] | Percent Reversal (L1210 cells [1]; reversing agent thymidine 5 μM) [%] | Percent Reversal (L1210 cells [1]; [9]) [%] | IC50 (L1210 leukemia cells; L1210, 72 h) [nM] | further results
Cc1cn([C@H]2C[C@H](NC(=O)N(C)N=O)[C@@H](CO)O2)c(=O)[nH]c1=O [Compound 11, 3'-(3-methyl-3-nitrosoureido)-3'-deoxythymidine] | 0 | 42 | 74 | 0 | 49 | 81 | 0 | 21 | 54 | 62 |  | inhibition at 5 µM (L1210 cells [1]; Mus musculus, compound 11 5 μM, no deoxycytidine, L1210, 72 hours, read-out: Percent Inhibition): 100%; Percent Inhibition (L1210 cells [1]; compound 11 5 μM + deoxycytidine 5 μM, L1210, 72 hours): 58%; Percent Inhibition (L1210 cells [1]; compound 11 5 μM + deoxycytidine 25 μM, L1210, 72 hours): 26%; Percent Inhibition (L1210 cells [1]; compound 11 5 μM + deoxycytidine 125 μM, L1210, 72 hours): 0%; Percent Reversal (L1210 cells [1]; reversing agent deoxycytidine 125 μM): 100%; IC50 (L1210 leukemia cells; L1210 cells in culture, 72 hours, Coulter counter, Fischer's media with 10% horse serum, 37°): 1000 nM
Cc1cn([C@H]2C[C@H](NC(=O)N(CCCl)N=O)[C@@H](CO)O2)c(=O)[nH]c1=O [Compound 10, 3'-[3-(2-chloroethyl)-3-nitrosoureido]-3'-deoxythymidine] | 0 | 28 | 40 | 0 | 32 | 51 | 0 | 22 | 45 | 54 | 1500 | Percent Reversal (L1210 cells [1]; reversing agent deoxycytidine 1 μM): 5%; Percent Reversal (L1210 cells [1]; reversing agent deoxyuridine 1 μM): 4%
Cc1cn([C@H]2C[C@H](O)[C@@H](CNC(=O)N(CCCl)N=O)O2)c(=O)[nH]c1=O [Compound 5, 5'-[3-(2-chloroethyl)-3-nitrosoureido]-5'-deoxythymidine] |  |  |  |  |  |  |  |  |  |  |  | animals survived more than 60 days (L1210 cells [2]; single intraperitoneal injection 150 mg/Kg, 2 days after 1 × 10^5 L1210 cells, CDF1 mice): 2/6; tumor cell kill (L1210 cells [2]; single intraperitoneal injection 150 mg/Kg, L1210, CDF1 mice): ~5 log; increase in life span of the dying animals over the controls (L1210 cells [2]; [10]): 211%; long term survivors (>60 days) (L1210 cells [2]; [10]): 33%
O=NN(CCCl)C(=O)NCCCl [BCNU, 1,3-bis(2-Chloroethyl)-1-nitrosourea, reference compound] |  |  |  |  |  |  |  |  |  |  | 4000 | 
